Measurements reported in patent US20040106626A1, “6-Membered unsaturated heterocyclic compounds useful for selective inhibition of the coagulation cascade” (Pharmacia Corporation, priority 2001, published 2004).

Legend:
Type in all cases: biochemical
[1] = target: T1, recombinant soluble tissue factor and recombinant human factor VIIa (TF-VIIa) (Homo sapiens, UniProt P08709); assay: TF-VIIa assay (chromogenic substrate hydrolysis); settings: reported only as less than or greater than 0.1 uM
T1 construct: conversion of coagulation factor VII to VIIa by factor Xa; purchased American Diagnostica, Greenwich CT; host or cells: soluble TF made in house in E. coli
In short: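 100 nM soluble tissue factor and 2 nM recombinant human factor VIIa added to 0.4 mM N-methylsulfonyl-D-phe-gly-arg-p-nitroaniline with inhibitor in 50 mM Tris-HCl pH 8.0, 5 mM CaCl2, 100 mM NaCl, 0.1% BSA. Percent inhibition from OD405 versus control.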

[2] = target: T2, Human thrombin (Homo sapiens, UniProt P00734); assay: Thrombin assay (chromogenic substrate); settings: reported only as less than or greater than 30 uM; read-out: Thrombin (II) IC50
T2 construct: converts prothrombin (II) to thrombin (IIa); purchased Calbiochem, La Jolla, Calif
In short: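 Chromogenic assay with p-nitroaniline-releasing substrate; thrombin activity read as OD405 nm. Percent inhibition calculated from experimental versus control absorbance.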

[3] = target: T3, Human factor Xa (Homo sapiens, UniProt P00742); assay: Xa assay (chromogenic substrate S-2765); settings: reported only as less than or greater than 30 uM; read-out: Factor Xa (II) IC50
T3 construct: purchased Enzyme Research Laboratories, South Bend Ind
In short: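 Human factor Xa (0.3 nM) was incubated with inhibitor and 0.15 mM S-2765 in 50 mM Tris-HCl pH 8.0, 100 mM NaCl, 0.1% BSA. After 60 min at RT, p-nitroaniline release was read at 405 nm after background subtraction. Percent inhibition was calculated against uninhibited control.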

[4] = test system: Normal human pooled plasma; assay: Prothrombin time (PT) clotting assay; settings: concentration at which prothrombin time is prolonged by 2x normal, reported as less than or greater than 50 uM
Method: The prothrombin time (PT) assay is a clotting assay that is used to determine deficiencies of clotting factor activity in the extrinsic pathway. The assay measures time to clotting after the addition of thromboplastin (human tissue factor). Normal human pooled plasma is incubated with 100 uM compound or saline in a coagulation machine. Thromboplastin is added and time to clotting is measured. Compounds with greater than 3×normal PT of 11.0 seconds are further analyzed by concentration response to determine at what concentration the prothrombin time is prolonged by 2×normal.

T1 sequence (P08709 213-466 limits assumed): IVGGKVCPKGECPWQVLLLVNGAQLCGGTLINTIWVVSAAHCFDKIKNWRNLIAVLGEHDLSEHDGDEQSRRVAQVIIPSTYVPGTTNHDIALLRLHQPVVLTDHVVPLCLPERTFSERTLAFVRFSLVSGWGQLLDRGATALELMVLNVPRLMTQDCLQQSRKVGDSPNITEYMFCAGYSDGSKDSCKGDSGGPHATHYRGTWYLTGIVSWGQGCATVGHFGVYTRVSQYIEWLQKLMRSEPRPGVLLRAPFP
T1 sequence (P08709 61-212 limits assumed): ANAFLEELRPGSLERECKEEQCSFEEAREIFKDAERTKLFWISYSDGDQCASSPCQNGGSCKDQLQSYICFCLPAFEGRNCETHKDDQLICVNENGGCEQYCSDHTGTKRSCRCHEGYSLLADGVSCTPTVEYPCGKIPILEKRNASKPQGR
T1 sequence (P13726 33-251 partner limits assumed): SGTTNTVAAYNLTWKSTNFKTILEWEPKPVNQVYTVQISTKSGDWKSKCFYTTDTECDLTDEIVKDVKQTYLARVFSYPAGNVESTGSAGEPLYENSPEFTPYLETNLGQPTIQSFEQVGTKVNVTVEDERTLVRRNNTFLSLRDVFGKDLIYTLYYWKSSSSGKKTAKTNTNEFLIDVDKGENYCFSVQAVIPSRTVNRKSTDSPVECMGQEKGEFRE
T3 sequence (P00742 235-488 limits assumed): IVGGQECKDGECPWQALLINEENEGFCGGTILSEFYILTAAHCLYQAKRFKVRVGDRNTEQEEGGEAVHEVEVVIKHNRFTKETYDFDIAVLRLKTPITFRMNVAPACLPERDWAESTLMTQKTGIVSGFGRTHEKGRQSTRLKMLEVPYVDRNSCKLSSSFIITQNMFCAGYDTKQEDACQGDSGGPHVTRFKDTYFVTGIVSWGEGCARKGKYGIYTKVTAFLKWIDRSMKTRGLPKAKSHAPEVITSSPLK
T3 sequence (P00742 41-179 limits assumed): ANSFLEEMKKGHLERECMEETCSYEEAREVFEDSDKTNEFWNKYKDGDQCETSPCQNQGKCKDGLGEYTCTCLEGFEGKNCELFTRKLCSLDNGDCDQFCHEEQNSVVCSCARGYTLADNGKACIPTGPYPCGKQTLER

SMILES	IC50 [1] [µM]	IC50 [2] [µM]	IC50 [3] [µM]	PT (Prothrombin time) 2xPT [4] [µM]
CCNC(=O)c1cc(N)cc(-c2cnc(NC(C)C)c(=O)n2CC(=O)NCc2ccc(C(=N)N)cc2)c1 [Example 63]	< 0.1	> 30	> 30	<50.0
CC(C)COc1cc(N)cc(-c2cnc(NC(C)C)c(=O)n2CC(=O)NCc2ccc(C(=N)N)cc2)c1 [Example 64, N-{4-[amino(imino)methyl]benzyl}-2-[6-(3-amino-5-isobutoxyphenyl)-3-(isopropylamino)-2-oxopyrazin-1 (2H)-yl]acetamide]	< 0.1	> 30	> 30	<50.0
CC(C)Nc1ncc(-c2cc(N)cc(C(F)(F)F)c2)n(CC(=O)NCc2c(F)c(O)c(C(=N)N)c(F)c2F)c1=O [Example 65]	> 0.1	> 30	> 30	>50.0
CC(C)Nc1ncc(-c2cc(N)cc(S(=O)(=O)O)c2)n(CC(=O)NCc2ccc(C(=N)N)cc2)c1=O [Example 66, 3-Amino-5-[1-[2-({4-[amino(imino)methyl]benzyl}amino)-2-oxoethyl]-5-(isopropylamino)-6-oxo-1,6-dihydropyrazin-2-yl]benzenesulfonic Acid]	< 0.1	> 30	> 30	<50.0
CC(C)Nc1ncc(-c2cc(N)cc(C(F)(F)F)c2)n(CC(=O)NCc2ccc(C(=N)N)s2)c1=O [Example 67]	< 0.1	> 30	< 30	<50.0
CC(C)Nc1ncc(-c2cc(N)cc(N)c2)n(CC(=O)NCc2ccc(C(=N)N)s2)c1=O [Example 68]	< 0.1	> 30	< 30	<50.0
CC(C)CSc1cc(N)cc(-c2cnc(NC(C)C)c(=O)n2CC(=O)NCc2ccc(C(=N)N)cc2)c1 [Example 70, N-{4-[amino(imino)methyl]benzyl}-2-[6-[3-amino-5-(isobutylthio)phenyl]-3-(isopropylamino)-2-oxopyrazin-1 (2H)-yl]acetamide]	< 0.1	> 30	> 30	<50.0
CC[C@@H](C)NC(=O)c1cc(N)cc(-c2cnc(NC(C)C)c(=O)n2CC(=O)NCc2ccc(C(=N)N)cc2)c1 [Example 72]	< 0.1	< 30	> 30	<50.0
CC(C)C[S+]([O-])c1cc(N)cc(-c2cnc(NC(C)C)c(=O)n2CC(=O)NCc2ccc(C(=N)N)cc2)c1 (centres unmarked) [Example 73, N-{4-[amino(imino)methyl]benzyl}-2-[6-[3-amino-5-(isobutylsulfinyl)phenyl]-3-(isopropylamino)-2-oxopyrazin-1 (2H)-yl]acetamide]	< 0.1	> 30	> 30	<50.0
CC(C)CS(=O)(=O)c1cc(N)cc(-c2cnc(NC(C)C)c(=O)n2CC(=O)NCc2ccc(C(=N)N)cc2)c1 [Example 74, N-{4-[amino(imino)methyl]benzyl}-2-[6-[3-amino-5-(isobutylsulfonyl)phenyl]-3-(isopropylamino)-2-oxopyrazin-1 (2H)-yl]acetamide]	< 0.1	> 30	> 30	<50.0
CC(C)Nc1ncc(-c2cc(N)cc(CCCc3ccccc3)c2)n(CC(=O)NCc2ccc(C(=N)N)cc2)c1=O [Example 76, N-{4-[amino(imino)methyl]benzyl}-2-[6-[3-amino-5-(3-phenylpropyl)phenyl]-3-(isopropylamino)-2-oxopyrazin-1 (2H)-yl]acetamide]	< 0.1	> 30	> 30	<50.0
COC(=O)c1cc(N)cc(-c2cnc(NC(C)C)c(=O)n2CC(=O)NCc2ccc(C(=N)N)c(O)c2)c1 [Example 77]	> 0.1	> 30	> 30	<50.0
CC(C)Nc1ncc(-c2cc(N)cc(NC(=O)OC(C)(C)C)c2)n(CC(=O)NCc2ccc(C(=N)N)c(O)c2)c1=O [Example 78]	> 0.1	> 30	> 30	<50.0
CC(C)Nc1ncc(-c2cc(N)cc(N)c2)n(CC(=O)NCc2ccc(C(=N)N)c(O)c2)c1=O [Example 79]	> 0.1	> 30	> 30	<50.0
CC(C)Nc1ncc(-c2cc(N)cc(/C=C/Cc3ccccc3)c2)n(CC(=O)NCc2ccc(C(=N)N)cc2)c1=O [Example 80, N-{4-[amino(imino)methyl]benzyl}-2-[6-{3-amino-5-[(1E)-3-phenylprop-1-enyl]phenyl}-3-(isopropylamino)-2-oxopyrazin-1 (2H)-yl]acetamide]	< 0.1	> 30	> 30	>50.0
CC(C)Nc1ncc(-c2cc(N)cc(C(=O)N[C@H](C)C3CCCCC3)c2)n(CC(=O)NCc2ccc(C(=N)N)cc2)c1=O.O=C(O)C(F)(F)F [Example 81]	< 0.1	< 30	> 30	<50.0
CC(C)Nc1ncc(-c2cc(N)cc(C(=O)N[C@@H](C)C3CCCCC3)c2)n(CC(=O)NCc2ccc(C(=N)N)cc2)c1=O.O=C(O)C(F)(F)F [Example 82]	< 0.1	< 30	> 30	<50.0
CC(C)Nc1ncc(-c2cc(N)cc(C(=O)N[C@@H](C(=O)O)c3ccccc3)c2)n(CC(=O)NCc2ccc(C(=N)N)cc2)c1=O [Example 83]	< 0.1	> 30	> 30	<50.0
CC(C)Nc1ncc(-c2cc(N)cc(C(=O)N[C@H](C(=O)O)c3ccccc3)c2)n(CC(=O)NCc2ccc(C(=N)N)cc2)c1=O [Example 84]	< 0.1	> 30	> 30	<50.0
CCC(C)[C@H](NC(=O)c1cc(N)cc(-c2cnc(NC(C)C)c(=O)n2CC(=O)NCc2ccc(C(=N)N)cc2)c1)C(=O)O (some centres unmarked) [Example 85]	< 0.1	> 30	> 30	<50.0
COC(=O)[C@H](NC(=O)c1cc(N)cc(-c2cnc(NC(C)C)c(=O)n2CC(=O)NCc2ccc(C(=N)N)cc2)c1)c1ccccc1 [Example 86]	< 0.1	< 30	> 30	<50.0
COC(=O)[C@@H](NC(=O)c1cc(N)cc(-c2cnc(NC(C)C)c(=O)n2CC(=O)NCc2ccc(C(=N)N)cc2)c1)c1ccccc1 [Example 87]	< 0.1	< 30	> 30	<50.0
CC(C)Nc1ncc(-c2cc(N)cc(NS(=O)(=O)c3ccc(OC(F)(F)F)cc3)c2)n(CC(=O)NCc2ccc(C(=N)N)cc2)c1=O [Example 88]	> 0.1	> 30	> 30	<50.0
CC(C)Nc1ncc(-c2cc(N)cc(NS(=O)(=O)c3ccccc3C(F)(F)F)c2)n(CC(=O)NCc2ccc(C(=N)N)cc2)c1=O [Example 89]	< 0.1	> 30	> 30	<50.0
CC(C)Nc1ncc(-c2cc(N)cc(NS(=O)(=O)c3ccc4ccccc4c3)c2)n(CC(=O)NCc2ccc(C(=N)N)cc2)c1=O [Example 90]	< 0.1	> 30	> 30	<50.0
CC(C)Nc1ncc(-c2cc(N)cc(NS(=O)(=O)c3cccs3)c2)n(CC(=O)NCc2ccc(C(=N)N)cc2)c1=O [Example 91]	< 0.1	> 30	> 30	<50.0
COc1ccc(S(=O)(=O)Nc2cc(N)cc(-c3cnc(NC(C)C)c(=O)n3CC(=O)NCc3ccc(C(=N)N)cc3)c2)cc1 [Example 92]	< 0.1	> 30	> 30	<50.0
CC(C)Nc1ncc(-c2cc(N)cc(NS(=O)(=O)c3ccc(F)cc3)c2)n(CC(=O)NCc2ccc(C(=N)N)cc2)c1=O [Example 93]	< 0.1	> 30	> 30	<50.0
CC(C)Nc1ncc(-c2cc(N)cc(NS(=O)(=O)c3ccc(F)cc3F)c2)n(CC(=O)NCc2ccc(C(=N)N)cc2)c1=O [Example 94]	< 0.1	> 30	> 30	<50.0
